Experimental data published in ChEMBL document CHEMBL1201862, “PubChem BioAssay data set” (2004).
The source made the active and inactive calls. No stated cut-off is given here; in the data, actives have a measured IC50 and inactives only a lower limit.

Biological target: Envelope glycoprotein gp160 (Human immunodeficiency virus 1, UniProt Q6QLK5)
Assay: inhibitors of HIV fusion peptide binding, primary screen, biochemical, uHTS, fluorescence dequenching (AID 1986)

Sequence of Envelope glycoprotein gp160 (Q6QLK5 whole entry, the tested form may be a part): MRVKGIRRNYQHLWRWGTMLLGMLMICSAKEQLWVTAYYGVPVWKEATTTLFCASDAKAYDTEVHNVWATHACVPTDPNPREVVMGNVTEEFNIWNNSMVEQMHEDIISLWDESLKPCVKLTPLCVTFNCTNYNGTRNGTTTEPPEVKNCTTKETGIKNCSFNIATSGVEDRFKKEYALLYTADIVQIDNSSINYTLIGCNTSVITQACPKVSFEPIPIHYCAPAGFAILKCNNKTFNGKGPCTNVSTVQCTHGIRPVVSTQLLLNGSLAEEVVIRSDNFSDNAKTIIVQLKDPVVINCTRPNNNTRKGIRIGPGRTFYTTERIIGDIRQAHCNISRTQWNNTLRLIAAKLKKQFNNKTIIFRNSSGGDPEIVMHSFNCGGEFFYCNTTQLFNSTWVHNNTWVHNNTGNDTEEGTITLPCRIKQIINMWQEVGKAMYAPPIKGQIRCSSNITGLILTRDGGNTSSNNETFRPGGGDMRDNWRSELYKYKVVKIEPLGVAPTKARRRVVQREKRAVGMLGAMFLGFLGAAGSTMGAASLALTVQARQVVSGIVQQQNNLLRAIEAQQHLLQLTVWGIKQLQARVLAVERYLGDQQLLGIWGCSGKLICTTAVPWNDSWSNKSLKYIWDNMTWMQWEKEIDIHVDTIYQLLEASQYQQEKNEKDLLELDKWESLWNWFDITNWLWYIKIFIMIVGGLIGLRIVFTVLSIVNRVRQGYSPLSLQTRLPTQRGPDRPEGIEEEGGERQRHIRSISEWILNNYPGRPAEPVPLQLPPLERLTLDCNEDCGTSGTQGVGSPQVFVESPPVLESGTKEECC

Cc1ccc(-c2nn(-c3ccccc3)cc2/C=C2\SC(=S)N(CC(=O)O)C2=O)cc1
IC50: 12.3 µM (active)

O=C1N/C(=N\c2ccccc2Cl)S/C1=C\c1cccc([N+](=O)[O-])c1O
IC50: 22.1 µM (active)

Nc1c(S(=O)(=O)O)cc(NC(=O)c2ccccc2)c2c1C(=O)c1ccccc1C2=O
IC50: 12.1 µM (active)

CC(C)(C)OC(=O)N1CCC(c2cc(O)n3ncc(C(=O)Nc4ccc(F)c(Cl)c4)c3n2)CC1
IC50: 82.2 µM (active)

CCOc1cc(Br)cc(C(c2c(C(=O)O)[nH]c3ccccc23)c2c(C(=O)O)[nH]c3ccccc23)c1O
IC50: 5.92 µM (active)
